For orientation: IC50 means the concentration that gives 50% inhibition. For orientation: GI50 means the concentration giving 50% growth inhibition. By Ki is commonly meant a dissociation constant, usually derived from enzyme kinetics or from competition with a known ligand.

Like-named read-outs stand apart in the source and are kept apart here. Starred links: 1 amine or outer side, 2 acyl side, 3 side chain; linkers in the order of their positions; H or OH if unused. Positions of bridges follow the written chain, without caps; N, C: chain ends. Non-standard residues stand in square brackets, D forms with d. Residues, ends and D or L forms follow the SMILES beside them. *: point of attachment. AMPB(E) = O=C(c1ccc(/N=N/c2ccc(CN[*:1])cc2)cc1)[*:2]; AMPB = O=C(c1ccc(N=Nc2ccc(CN[*:1])cc2)cc1)[*:2]; X1 = O=C(c1ccc(/N=N\c2ccc(CN[*:1])cc2)cc1)[*:2]; d(αMeK) = C[C@@](N)(CCCCN)C(=O)O; dPhg = N[C@@H](C(=O)O)c1ccccc1; Isobutyryl = CC(C)C(=O)*; Abu = CC[C@H](N)C(=O)O

The values below come from article PMC5618341, “Controlled inhibition of methyltransferases using photoswitchable peptidomimetics: towards an epigenetic regulation of leukemia” (Chemical Science, 2017).

The target of assay [1] is MLL1 core complex (MLL1, WDR5, RbBP5, and ASH2L) (Homo sapiens, UniProt P61964). In words: biochemical.
Protocol: To test this, we studied the inhibition of MLL1 H3K4 methyltransferase activity through the previously reported in vitro HMT assay using the MLL1 core complex (i.e. MLL1, WDR5, RbBP5, and ASH2L) and the H3 20mer peptide as substrate.[17]
In Vitro Methyl Transferase Assay with MLL1 Core Complex
In Vitro Histone Methyltransferase (HMT) Assay
The HMT assay was performed, as previously described[25] with slight modifications, in 50 mM Tris pH 8.0, 50 mM NaCl, 1.0 mM DTT, 5 mM MgCl2 at room temperature. Each reaction contained 1.5 μM of the cofactor 3H-S-adenosylmethionine (Perkin-Elmer). H31-21 peptide was used as the substrate at 250 μM. […] Reactions were initiated by addition of the H3/SAM and allowed to proceed for 60 min before preparing scintillation counting. To count samples, reactions were spotted on separate squares of P81 filter paper (Millipore) and precipitated by submerging in freshly prepared 50 mM sodium bicarbonate buffer pH = 9.0. After washing and drying, the samples were vortexed in Ultima Gold scintillation fluid and counted.
The target of assay [2] is T1, WDR5Δ23 (Homo sapiens, UniProt P61964).
T1 construct: His6-SUMO (N, cleaved yes); made in house; host or cells: E. coli DH5α (so in the source)
In words: Fluorescence polarization (FP)-based competitive binding assay. As to conditions: for Ki: read-out: Ki, non-irradiation (trans). On the technique in general: Polarisation of emitted light reports the rotation of a fluorescent probe.

The test system of assay [3] is MLL-AF9-transduced mouse bone marrow cells. In words: Proliferation / cell viability assay (CellTiter-Glo). Format: cell-based. As to conditions: for Inhibition (%) of growth: 5 μM. Here is the method:
We initially studied the cellular uptake and cell viability of our compounds in murine MLL-AF9-transduced mouse bone marrow cells (Fig. 5). In line with our expectations, peptidomimetics 16 and 17 that contained peptide 7 within their sequence are the ones that inhibited the cell proliferation of leukemia. […] Thus, while in the case of the trans isomer of peptidomimetic 16 we already determined less than 50% of viable cells at 2.5 μM concentration, with the WIN-containing conjugates 20 and 21 we measured 87% and 96% of viable cells at 50 μM concentration, respectively.
We then examined the potential of 16 and 17 to control externally the cellular response in proliferation assays. Thus, both isomers of both peptidomimetics were incubated at different concentrations for four days. After two days of incubation, the cells containing the cis isomers were irradiated at 430 nm for 90 seconds in a single isomerization cycle with a custom-made 6-well plate LED array.
MLL-AF9-transduced mouse bone marrow was cultured in IMDM medium + 15% FBS and supplemented with 10 ng/mL interleukin-3 (IL-3) at each passage, every other day.
DMSO) isomers, of peptides 7, 16, 17, as well as the peptides 18 and 19 were diluted from stock to culture media containing a 0.1% DMSO final concentration. For viability assays, […]
72 h and DMSO as control . For the cis-trans group, after 48 h treatment with cis peptides, the plate was irradiated at […] for 90 sec and continued to culture for 2 days in the dark.
Viability was determined using the CellTiter-Glo Kit (Promega) according to the a a ’ d . was monitored on a Molecular Devices plate reader.
In general terms: ATP-based viability assays read luminescence as a measure of living cells.

Setting [4] is: non-irradiated peptide (trans isomer), 72 nM WDR5Δ23, 20 nM tracer 22, read-out: IC50, non-irradiated (trans).
[5] abbreviates: non-irradiated peptide (trans isomer), 72 nM WDR5Δ23, 20 nM tracer 22.

Regarding `CC(C)C[C@H](NC(=O)[C@H](Cc1c[nH]cn1)NC(=O)[C@@H](NC(=O)c1ccc(/N=N\c2ccc(CNC(=O)[C@H](C)NC(=O)[C@H](CCCNC(=N)N)NC(=O)[C@H](C)NC(=O)[C@@H](N)CO)cc2)cc1)C(C)C)C(=O)N[C@@H](CCCNC(=N)N)C(=O)N[C@@H](CCCCN)C(=O)N[C@@H](CO)C(N)=O` [7cis, H2N-SARAXVHLRKS-CONH2] (H-SARA[X1]VHLRKS-NH2), the IC50 in assay [1] amounted to 8.23 ± 0.38 µM; in assay [2] (IC50 cis (with 5 nM tracer), cis isomer (366 nm), 20 nM WDR5Δ23, 5 nM tracer 22), 147 ± 14 nM. For the same compound, the “Inhibition (%) of growth” value in assay [3] (96 h incubation) was “≈ 0%”.

In the case of `CC(C)C[C@H](NC(=O)[C@H](Cc1c[nH]cn1)NC(=O)[C@@H](NC(=O)c1ccc(/N=N/c2ccc(CNC(=O)[C@H](C)NC(=O)[C@H](CCCNC(=N)N)NC(=O)[C@H](C)NC(=O)[C@@H](N)CO)cc2)cc1)C(C)C)C(=O)N[C@@H](CCCNC(=N)N)C(=O)N[C@@H](CCCCN)C(=O)N[C@@H](CO)C(N)=O` [7trans, H2N-SARAXVHLRKS-CONH2] (H-SARA[AMPB(E)]VHLRKS-NH2), the IC50 in assay [1] amounted to 0.531 ± 0.023 µM; in assay [2] (IC50 trans (with 5 nM tracer), trans isomer, 20 nM WDR5Δ23, 5 nM tracer 22), 57 ± 11 nM. Also, the “Inhibition (%) of growth” value in assay [3] (96 h incubation) is recorded as 0%.

In assay [3] (96 h), `CC(C)C[C@H](NC(=O)[C@H](Cc1c[nH]cn1)NC(=O)[C@@H](NC(=O)c1ccc(/N=N\c2ccc(CNC(=O)[C@H](C)NC(=O)[C@H](CCCNC(=N)N)NC(=O)[C@H](C)NC(=O)[C@@H](N)CO)cc2)cc1)C(C)C)C(=O)N[C@@H](CCCNC(=N)N)C(=O)N[C@@H](CCCCN)C(=O)N[C@@H](CO)C(=O)N[C@@H](CCCNC(=N)N)C(=O)N[C@@H](CCCNC(=N)N)C(=O)N[C@@H](CCCNC(=N)N)C(=O)N[C@@H](CCCNC(=N)N)C(=O)N[C@@H](CCCNC(=N)N)C(=O)N[C@@H](CCCNC(=N)N)C(=O)N[C@@H](CCCNC(=N)N)C(=O)N[C@@H](CCCNC(=N)N)C(N)=O` [16cis, H2N-SARA-AMPB-VHLRKS-R8-NH2] (H-SARA[X1]VHLRKSRRRRRRRR-NH2) yielded a GI50 of 2.88 ± 0.24 µM.

Consider `CC[C@@H]1NC(=O)[C@H](CCCN=C(N)N)NC(=O)[C@](C)(NC(=O)C(C)C)CCCCNC(=O)[C@@H](c2ccccc2)NC1=O` [MM401, reference compound] (Isobutyryl-[d(αMeK)]R[Abu][dPhg]; lactam 1-C), for which, in assay [3] (96 h incubation, cis isomers kept in the dark, read-out: GI50), the GI50 was found to be 9.76 µM.

Take `CC(C)C[C@H](NC(=O)[C@H](Cc1c[nH]cn1)NC(=O)[C@@H](NC(=O)[C@H](CCC(=O)O)NC(=O)[C@H](C)NC(=O)[C@H](CCCNC(=N)N)NC(=O)c1ccc(N=Nc2ccc(CNC(=O)[C@@H](N)CO)cc2)cc1)C(C)C)C(=O)N[C@@H](CCCNC(=N)N)C(=O)N[C@@H](CCCCN)C(=O)N[C@@H](CO)C(N)=O` [peptide 5, H2N-SXRAEVHLRKS-CONH2] (H-S[AMPB]RAEVHLRKS-NH2): the IC50 in assay [2] (setting [4]) came out at 3910 ± 830 nM. The Ki in assay [2] (setting [5]) came to 66.8 ± 10 nM.

With `CC(C)C[C@H](NC(=O)[C@H](Cc1c[nH]cn1)NC(=O)c1ccc(N=Nc2ccc(CNC(=O)[C@H](CCC(=O)O)NC(=O)[C@H](C)NC(=O)[C@H](CCCNC(=N)N)NC(=O)[C@H](C)NC(=O)[C@@H](N)CO)cc2)cc1)C(=O)N[C@@H](CCCNC(=N)N)C(=O)N[C@@H](CCCCN)C(=O)N[C@@H](CO)C(N)=O` [peptide 8, H2N-SARAEXHLRKS-CONH2] (H-SARAE[AMPB]HLRKS-NH2), the IC50 in assay [2] (setting [4]) came to 210 ± 35 nM. Also, in assay [2] (setting [5]), the Ki was 2.4 ± 0.6 nM.

In the case of `CC(C)C[C@H](NC(=O)c1ccc(N=Nc2ccc(CNC(=O)[C@@H](NC(=O)[C@H](CCC(=O)O)NC(=O)[C@H](C)NC(=O)[C@H](CCCNC(=N)N)NC(=O)[C@H](C)NC(=O)[C@@H](N)CO)C(C)C)cc2)cc1)C(=O)N[C@@H](CCCNC(=N)N)C(=O)N[C@@H](CCCCN)C(=O)N[C@@H](CO)C(N)=O` [peptide 9, H2N-SARAEVXLRKS-CONH2] (H-SARAEV[AMPB]LRKS-NH2), in assay [2] (setting [4]), the IC50 was 2530 ± 390 nM. In assay [2] (setting [5]), the Ki came out at 40.4 ± 3.9 nM.

For the compound `CC(C)[C@H](NC(=O)[C@H](CCC(=O)O)NC(=O)[C@H](C)NC(=O)[C@H](CCCNC(=N)N)NC(=O)[C@H](C)NC(=O)[C@@H](N)CO)C(=O)N[C@@H](Cc1c[nH]cn1)C(=O)NCc1ccc(N=Nc2ccc(C(=O)N[C@@H](CCCNC(=N)N)C(=O)N[C@@H](CCCCN)C(=O)N[C@@H](CO)C(N)=O)cc2)cc1` [peptide 10, H2N-SARAEVHXRKS-CONH2] (H-SARAEVH[AMPB]RKS-NH2), the IC50 in assay [2] (setting [4]) is 1150 ± 120 nM. For the same compound, the Ki in assay [2] (setting [5]) is 17 ± 1.9 nM.
